How the values were obtained:
Format in all cases: biochemical
BAM3 = target: T1, BAM3 (Arabidopsis thaliana, UniProt O23553); test: GC-MS maltose assay, Lineweaver-Burk and non-linear regression; details: substrate maltohexaose 2.5-25 mM; mixed inhibition; 50 mM sodium acetate, 5 mM DTT, 5 mM EDTA, pH 6.0, 25°C
T1 sequence (O23553 50-548): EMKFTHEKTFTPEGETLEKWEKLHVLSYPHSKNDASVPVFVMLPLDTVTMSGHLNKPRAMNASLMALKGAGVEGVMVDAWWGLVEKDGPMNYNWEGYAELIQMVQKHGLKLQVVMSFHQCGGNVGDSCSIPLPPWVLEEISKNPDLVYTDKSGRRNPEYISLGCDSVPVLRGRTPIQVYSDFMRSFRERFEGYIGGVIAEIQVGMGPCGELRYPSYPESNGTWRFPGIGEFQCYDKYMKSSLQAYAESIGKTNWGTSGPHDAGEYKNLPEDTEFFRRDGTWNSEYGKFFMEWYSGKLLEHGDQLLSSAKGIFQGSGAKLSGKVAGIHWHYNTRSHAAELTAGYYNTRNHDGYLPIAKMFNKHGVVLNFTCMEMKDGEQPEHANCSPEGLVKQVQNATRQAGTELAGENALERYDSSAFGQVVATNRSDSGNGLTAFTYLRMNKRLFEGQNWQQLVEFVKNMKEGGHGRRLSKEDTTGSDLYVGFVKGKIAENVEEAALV

BAM1 = target: T2, BAM1 (Arabidopsis thaliana, UniProt Q9LIR6); test: Betamyl colorimetric assay, p-nitrophenol release; details: 2.5 mM substrate, 0.1 M maleic acid pH 6.2, 40°C; enzyme pre-treated with 20 mM DTT
T2 sequence (Q9LIR6 42-575): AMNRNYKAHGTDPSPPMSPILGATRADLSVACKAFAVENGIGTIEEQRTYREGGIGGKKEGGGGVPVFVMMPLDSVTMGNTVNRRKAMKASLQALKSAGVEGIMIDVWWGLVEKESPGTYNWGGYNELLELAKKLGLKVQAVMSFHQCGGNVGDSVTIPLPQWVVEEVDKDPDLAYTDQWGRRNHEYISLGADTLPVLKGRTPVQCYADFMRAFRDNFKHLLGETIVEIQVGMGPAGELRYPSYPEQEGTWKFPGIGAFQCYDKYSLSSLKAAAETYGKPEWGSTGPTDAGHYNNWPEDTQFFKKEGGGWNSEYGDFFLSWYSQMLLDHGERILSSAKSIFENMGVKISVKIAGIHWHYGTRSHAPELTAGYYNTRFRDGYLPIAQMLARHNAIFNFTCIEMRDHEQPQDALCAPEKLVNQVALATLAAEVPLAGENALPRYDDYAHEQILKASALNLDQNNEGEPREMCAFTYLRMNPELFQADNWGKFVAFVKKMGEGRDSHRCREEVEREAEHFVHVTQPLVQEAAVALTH

barley BAM = target: T3, barley BAM (Hordeum vulgare, UniProt P16098); test: Betamyl colorimetric assay, p-nitrophenol release; details: 2.5 mM substrate, 0.1 M maleic acid pH 6.2, 40°C; enzyme pre-treated with 20 mM DTT
T3 construct: gene BMY1; commercial barley seed beta-amylase (Sigma A7130), native preparation, lyophilised powder
T3 sequence (P16098 whole entry): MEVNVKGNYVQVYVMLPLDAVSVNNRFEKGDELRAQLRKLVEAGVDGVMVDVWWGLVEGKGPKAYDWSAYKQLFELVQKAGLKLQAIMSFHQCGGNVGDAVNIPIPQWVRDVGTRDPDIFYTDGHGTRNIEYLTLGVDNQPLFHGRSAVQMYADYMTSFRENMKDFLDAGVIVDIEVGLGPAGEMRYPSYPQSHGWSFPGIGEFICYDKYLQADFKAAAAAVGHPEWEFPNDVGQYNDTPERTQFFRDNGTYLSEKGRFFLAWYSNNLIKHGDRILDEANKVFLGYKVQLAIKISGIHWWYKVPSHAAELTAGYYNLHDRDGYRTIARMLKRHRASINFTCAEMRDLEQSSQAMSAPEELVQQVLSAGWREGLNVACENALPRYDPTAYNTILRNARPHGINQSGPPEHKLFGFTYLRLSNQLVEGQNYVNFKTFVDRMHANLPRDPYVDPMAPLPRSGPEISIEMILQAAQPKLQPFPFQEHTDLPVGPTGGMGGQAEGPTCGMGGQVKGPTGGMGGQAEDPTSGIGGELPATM

Row | Compound | Ki (BAM3) | Betamyl colorimetric assay, p-nitrophenol release (BAM1) | Betamyl colorimetric assay, p-nitrophenol release (barley BAM)
1 | OC[C@H]1O[C@H](O[C@H]2[C@H](O)[C@@H](O)[C@@H](O[C@H]3[C@H](O)[C@@H](O)C(O)O[C@@H]3CO)O[C@@H]2CO)[C@H](O)[C@@H](O)[C@@H]1O (stereo partly drawn) [G3, maltotriose] | 7.5 mM | – | –
2 | O=[N+]([O-])c1ccc(O[C@H]2O[C@H](CO)[C@@H](O[C@H]3O[C@H](CO)[C@@H](O[C@H]4O[C@H](CO)[C@@H](O[C@H]5O[C@H](CO)[C@@H](O[C@H]6O[C@H](CO)[C@@H](O)[C@H](O)[C@H]6O)[C@H](O)[C@H]5O)[C@H](O)[C@H]4O)[C@H](O)[C@H]3O)[C@H](O)[C@H]2O)cc1 [PNPG5, p-nitrophenyl maltopentaoside] | – | we assayed recombinant BAM1 and commercially-purchased barley seed β-amylase, under the same conditions | we assayed recombinant BAM1 and commercially-purchased barley seed β-amylase, under the same conditions

Source: article PMC5321445, “Inhibition of Arabidopsis chloroplast β-amylase BAM3 by maltotriose suggests a mechanism for the control of transitory leaf starch mobilisation” (PLoS ONE, 2017)
